Reference: US7638554B2, “Flavanoids as chemotherapeutic, chemopreventive, and antiangiogenic agents” (SRI International, priority 2002, dated 2009)
Where two headings read alike, the source gives them in different places.

What was measured:
[1] = system: LNCaP human prostate cancer cells; assay: Cell cycle arrest in LNCaP cells (Hoechst 33258 nuclear morphology, flow cytometry); format: cell-based
Description: To determine whether SR 13179 exerts its antiproliferative activity by perturbing the cell cycle, the nuclear morphology of LNCaP cells was visualized after treatment with SR 13179. The cells were exposed to the compound for 28 h at concentrations of either 0.5 μM or 1 μM and then stained with the nuclear dye Hoechst 33258.
To investigate the mitotic arrest in more detail, flow cytometry was used to study the effect of SR 13179 on cell cycle progression for LNCaP cells.

[2] = system: lung cancer cell line A427; assay: Growth inhibition, sulforhodamine-based protein determination, A427; format: cell-based; conditions: Homo sapiens, A-427, 144 h; continuous exposure six days
Description: (§1) The novel compound SR 13179 was assayed for its ability to inhibit growth in several cancer cell lines. The cell lines studied included breast cancer cell line MCF-7 (ER+); prostate cancer cell lines LNCaP, PC3, and DU145; lung cancer cell line A427; ovarian cancer cell lines IGROV1, OVCAR-3, OVCAR-4, OVCAR-5, OVCAR-8, and SK-OV-3; and colon cancer cell lines COLO 205, HCC-2998, HCT-116, HCT-15, HT29, KM12, AND SW-620.
(§2) The growth assays for the breast cancer cell lines were conducted according to the method of Example 16. For the other cell lines, each assay was conducted with continuous exposure to the test compound at four log concentrations for six days, using a sulforhodamine-based protein determination to measure growth inhibition.

[3] = system: ovarian cancer cell line SK-OV-3; assay: Growth inhibition, sulforhodamine-based protein determination, SK-OV-3; format: cell-based; conditions: Homo sapiens, SK-OV-3, 144 h; continuous exposure six days
Description: as §1, §2

[4] = system: MCF-7 (ER+) breast cancer cell line; assay: Growth inhibition assay, MTT, MCF-7 breast cancer cells; format: cell-based, human; conditions: Homo sapiens
Description: Compounds of the invention were tested for their ability to inhibit growth in two breast cancer cell lines, MCF-7 (ER+) and MDA-MB-231 (ER−).
The growth inhibition assays were conducted using routine methods. Briefly, the cells were seeded in 24-well plates at a density of 2000 cells per well in 200 μL of […] growth medium. To each well was added 10 μL of DMSO containing the dissolved test compound; final DMSO concentration in each well was not more than 0.5%. Each test compound was assayed at concentrations of 0.4, 2, 10, and 50 μM. The plates were incubated for eight days, with the media and test solutions replaced every third day. On Day 8, the viable cells were measured by the MTT assay, as described in Mosmann et al. (1983), “Rapid Colorimetric Assay for Cellular Growth and Survival: Application to Proliferation and Cytotoxicity,” J. Immunol. Method. 65:55-63. The optical density at 575 nm of each test well was measured and compared to that for control wells, and the data used to calculate the percentage of growth inhibition at different concentrations. The IC50 value (the concentration of growth inhibitor that results in 50% growth inhibition of the cells in culture relative to control cells not exposed to any growth inhibitor) was determined by plotting dose-response curves.
The calculated IC50 values are set forth in Table 1, with the results representing the average of at least two experiments conducted for each compound at each of the four concentrations.

[5] = system: human umbilical vein endothelial cells (HUVECs); assay: Growth inhibition of HUVECs, MTT assay; format: cell-based; conditions: HUVEC, read-out: concentration to inhibit growth by 50%, HUVECs
Description: Angiogenesis depends upon the proliferation of vascular endothelial cells. To determine the potential antiangiogenic activity of SR 13179, the compound's ability to inhibit the proliferation of these cells was assayed. Apoptosis was then investigated as a possible mechanism for the antiproliferative activity.
Human vascular endothelial cells taken from umbilical veins (HUVECs) were obtained from Clonetics Corporation (San Diego, Calif.). Growth inhibition was measured quantitatively using the MTT assay as described by Mosmann et al., cited in the previous example.
The concentration to inhibit growth by 50% was 0.37 μM.

[6] = system: colon cancer cell line SW-620; assay: Growth inhibition, sulforhodamine-based protein determination, SW-620; format: cell-based; conditions: Homo sapiens, SW-620, 144 h; continuous exposure six days
Description: as §1, §2

[7] = system: prostate cancer cell line DU145; assay: Growth inhibition, sulforhodamine-based protein determination, DU145; format: cell-based; conditions: Homo sapiens, DU-145, 144 h; continuous exposure six days
Description: as §1, §2

human TIMP-2 mRNA = assay: Northern blot analysis of TIMP-2 mRNA, MCF10CA1a cells; format: cell-based; conditions: 0.5, 1, 3, or 5 μM
Description: Northern blotting. Ten μg of total RNA was electrophoresed in 1% agarose gel containing 6% formaldehyde, transferred to nylon membrane (Amersham Hybond N) by capillary blotting and fixed to the filter by exposure to UV. The blot was probed with a 600 bp ^32P-labeled cDNA sequence of human TIMP-2. Hybridizations were carried out at 42° C. in 50% formamide, 5×SSC, 5×Denhardt's solution, 0.1% SDS, and 0.3 mg/ml salmon sperm DNA. Filters were exposed to X-ray film (Kodak XAR-2) at −80° C. using an intensifying screen (Coronex Hi-Plus).
The effect of SR13179 on the extracellular levels of TIMP-2 as well as MMP-2 was also investigated. Treatment of MCF-10CA1a cells with SR13179 at 5 μM concentration caused 5- to 8-fold increase in the secreted level of TIMP-2 and a 2-fold decrease in the extracellular level of MMP-2. However, extracellular TIMP-2 protein was always associated with MMP-2 protein, even after the samples were boiled for 10 min and separated under the denaturing conditions of gel electrophoresis.

[8] = system: ovarian cancer cell line OVCAR-5; assay: Growth inhibition, sulforhodamine-based protein determination, OVCAR-5; format: cell-based; conditions: Homo sapiens, OVCAR-5, 144 h; continuous exposure six days
Description: as §1, §2

[9] = system: MCF-7 human breast cancer xenografts; assay: MCF-7 human breast cancer xenografts in nude mice, i.p. administration; format: in vivo
Description: To evaluate the in vivo activity of novel compound SR 13179 against breast cancer, the compound was administered to female BALB/c nude mice that had been implanted with breast cancer cells. In this experiment, MCF-7 human breast cancer cells (2.5×10^6 cells) were implanted subcutaneously in both flanks of each mouse. Two days after cell inoculation, one estradiol pellet (10 μg/pellet) was implanted into each mouse by subcutaneous implantation. When tumor volumes reached 100 mm^3 (Day 0), SR 13179 was administered at a dose of 12.5 mg/kg, 25 mg/kg and 50 mg/kg intraperitoneally (i.p.) once a day, as a suspension in 0.5% hydroxypropyl cellulose. Body weights and tumor volumes were measured twice a week for 14 days. The tumor volume was expressed as % of initial tumor size which was designated as 100% on Day 0.

[10] = 12.5, 25 and 50 mg/kg i.p. once a day

## COc1cc(C2CC(O)c3ccc4ccccc4c3O2)cc(OC)c1OC (stereo not drawn) [SR 13179, 2-(3,4,5-trimethoxyphenyl)-3,4-dihydro-2H-benzo[h]chromen-4-ol]
[1]; 0.5 μM or 1 μM, 28 h
  nuclear morphology (Hoechst 33258): chromatin condensation characteristic of a prometaphase arrest
[1]; 2 μM and greater, 24 h, flow cytometry
  G2/M fraction compared with the control: two-fold increase
[2]
  IC50: 510 nM
[3]
  IC50: 529 nM
[4]; MCF7, 192 h, MTT assay, eight days, average of at least two experiments, read-out: GROWTH INHIBITION (IC50) MCF-7 (ER+)
  IC50: 1410 nM
[4]; MCF7, Table 2, method of Example 16, read-out: IC50, growth inhibition, MCF-7 (ER+)
  IC50: 1140 nM
[5]
  IC50: 370 nM
[6]
  IC50: 281 nM
[7]
  IC50: 638 nM
Human TIMP-2 mRNA
  TIMP-2 mRNA: dose-dependent induction
[8]
  IC50: 1360 nM
[9]; 12.5 mg/kg/day i.p., 14 days
  tumor growth: complete suppression of tumor growth
[9]; 50 mg/kg/day i.p., 14 days
  tumor size compared to the size at Day 0: slight regression in tumor size
[9]; [10]
  body weights of the treated mice: unaffected
  overt toxicity: no overt toxicity was observed
